According to PubChem BioAssay AID1918930 (Molecular Pharmacology Branch, DTP, NCI, 2023):

Tested on: 233499-124-R-J3-PDC complex spheroid viability, % test/control
Assay: Anticancer human tumor 233499-124-R-J3-PDC patient-derived colon adenocarcinoma cell line growth inhibition
Details: for IC50: curve of first compound; for viability, T/C: stronger effect = lower value
Outline: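 Complex spheroids of tumor cells with HUVEC and human MSCs, exposed to iadademstat combined with other agents. Each agent tested in half-log steps from near clinical Cmax (else 10 microM top), DMSO ≤0.25%.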

[1] = second compound 0.1 µM, first compound 0.000316 µM
[2] = second compound 0.1 µM, first compound 0.001 µM
[3] = second compound 0.1 µM, first compound 0.00316 µM
[4] = second compound 0.1 µM, first compound 0.01 µM
[5] = second compound 0.1 µM, first compound 0.0316 µM
[6] = second compound 0.1 µM, first compound 0.1 µM
[7] = second compound 0.316 µM, first compound 0.000316 µM
[8] = second compound 0.316 µM, first compound 0.001 µM
[9] = second compound 0.316 µM, first compound 0.00316 µM
[10] = second compound 0.316 µM, first compound 0.01 µM
[11] = second compound 0.316 µM, first compound 0.0316 µM
[12] = second compound 0.316 µM, first compound 0.1 µM
[13] = second compound 1 µM, first compound 0.000316 µM
[14] = second compound 1 µM, first compound 0.001 µM
[15] = second compound 1 µM, first compound 0.00316 µM
[16] = second compound 1 µM, first compound 0.01 µM
[17] = second compound 1 µM, first compound 0.0316 µM
[18] = second compound 1 µM, first compound 0.1 µM
[19] = second compound 3.16 µM, first compound 0.000316 µM
[20] = second compound 3.16 µM, first compound 0.001 µM
[21] = second compound 3.16 µM, first compound 0.00316 µM
[22] = second compound 3.16 µM, first compound 0.01 µM
[23] = second compound 3.16 µM, first compound 0.0316 µM
[24] = second compound 3.16 µM, first compound 0.1 µM
[25] = second compound 10 µM, first compound 0.000316 µM
[26] = second compound 10 µM, first compound 0.001 µM
[27] = second compound 10 µM, first compound 0.00316 µM
[28] = second compound 10 µM, first compound 0.01 µM
[29] = second compound 10 µM, first compound 0.0316 µM
[30] = second compound 10 µM, first compound 0.1 µM
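Further: spheroids exposed to agents for one week before readout.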

Nc1ncn(C2CC(O)C(CO)S2)c(=O)n1 (stereo not given) + NC1CC1c1ccc(-c2cccc(O)c2)cc1
IC50 (second compound 0.1 µM): 100 nM
IC50 (second compound 0.316 µM): 102 nM
IC50 (second compound 1 µM): 124 nM
IC50 (second compound 3.16 µM): 128 nM
IC50 (second compound 10 µM): 81.5 nM
viability, T/C (second compound 0.1 µM, first compound 0.000949 µM): 95.5%
viability, T/C (second compound 0.1 µM, first compound 0.003 µM): 94.1%
viability, T/C (second compound 0.1 µM, first compound 0.00949 µM): 117%
viability, T/C (second compound 0.1 µM, first compound 0.03 µM): 101%
viability, T/C (second compound 0.1 µM, first compound 0.0949 µM): 51.2%
viability, T/C (second compound 0.1 µM, first compound 0.3 µM): 25.6%
viability, T/C (second compound 0.316 µM, first compound 0.000949 µM): 108%
viability, T/C (second compound 0.316 µM, first compound 0.003 µM): 96.7%
viability, T/C (second compound 0.316 µM, first compound 0.00949 µM): 114%
viability, T/C (second compound 0.316 µM, first compound 0.03 µM): 114%
viability, T/C (second compound 0.316 µM, first compound 0.0949 µM): 51.2%
viability, T/C (second compound 0.316 µM, first compound 0.3 µM): 31.5%
viability, T/C (second compound 1 µM, first compound 0.000949 µM): 85.7%
viability, T/C (second compound 1 µM, first compound 0.003 µM): 96.4%
viability, T/C (second compound 1 µM, first compound 0.00949 µM): 103%
viability, T/C (second compound 1 µM, first compound 0.03 µM): 87%
viability, T/C (second compound 1 µM, first compound 0.0949 µM): 57.2%
viability, T/C (second compound 1 µM, first compound 0.3 µM): 26.7%
viability, T/C (second compound 3.16 µM, first compound 0.000949 µM): 81%
viability, T/C (second compound 3.16 µM, first compound 0.003 µM): 86.9%
viability, T/C (second compound 3.16 µM, first compound 0.00949 µM): 85.8%
viability, T/C (second compound 3.16 µM, first compound 0.03 µM): 89.1%
viability, T/C (second compound 3.16 µM, first compound 0.0949 µM): 58.4%
viability, T/C (second compound 3.16 µM, first compound 0.3 µM): 26%
viability, T/C (second compound 10 µM, first compound 0.000949 µM): 80.2%
viability, T/C (second compound 10 µM, first compound 0.003 µM): 83.4%
viability, T/C (second compound 10 µM, first compound 0.00949 µM): 81.5%
viability, T/C (second compound 10 µM, first compound 0.03 µM): 83.8%
viability, T/C (second compound 10 µM, first compound 0.0949 µM): 45%
viability, T/C (second compound 10 µM, first compound 0.3 µM): 34.7%

Cn1ncnc1C1c2n[nH]c(=O)c3cc(F)cc(c23)NC1c1ccc(F)cc1 (stereo not given) + NC1CC1c1ccc(-c2cccc(O)c2)cc1
IC50 (second compound 0.1 µM): > 100 nM
IC50 (second compound 0.316 µM): > 100 nM
IC50 (second compound 1 µM): > 100 nM
IC50 (second compound 3.16 µM): > 100 nM
IC50 (second compound 10 µM): > 100 nM
viability, T/C [1]: 106%
viability, T/C [2]: 105%
viability, T/C [3]: 105%
viability, T/C [4]: 91.2%
viability, T/C [5]: 95.4%
viability, T/C [6]: 84.4%
viability, T/C [7]: 89.1%
viability, T/C [8]: 108%
viability, T/C [9]: 128%
viability, T/C [10]: 98.1%
viability, T/C [11]: 102%
viability, T/C [12]: 89.3%
viability, T/C [13]: 85.7%
viability, T/C [14]: 83.1%
viability, T/C [15]: 87.5%
viability, T/C [16]: 74.2%
viability, T/C [17]: 89.5%
viability, T/C [18]: 88.5%
viability, T/C [19]: 89.9%
viability, T/C [20]: 96%
viability, T/C [21]: 90.2%
viability, T/C [22]: 76.5%
viability, T/C [23]: 76.7%
viability, T/C [24]: 78.5%
viability, T/C [25]: 74.7%
viability, T/C [26]: 80.6%
viability, T/C [27]: 69.7%
viability, T/C [28]: 70.3%
viability, T/C [29]: 58.7%
viability, T/C [30]: 58.8%

CC(C)CC(NC(=O)CNC(=O)c1cc(Cl)ccc1Cl)B1OC(=O)CC(CC(=O)O)(C(=O)O)O1 (stereo not given) + NC1CCC(NC2CC2c2ccccc2)CC1
IC50 (second compound 0.1 µM): 5.11 nM
IC50 (second compound 0.316 µM): 5.49 nM
IC50 (second compound 1 µM): 4.87 nM
IC50 (second compound 3.16 µM): 4.14 nM
IC50 (second compound 10 µM): 3.33 nM
viability, T/C [1]: 104%
viability, T/C [2]: 90.2%
viability, T/C [3]: 81.8%
viability, T/C [4]: 4.56%
viability, T/C [5]: 6.96%
viability, T/C [6]: 5.21%
viability, T/C [7]: 109%
viability, T/C [8]: 96.2%
viability, T/C [9]: 88.8%
viability, T/C [10]: 7.64%
viability, T/C [11]: 8.46%
viability, T/C [12]: 0.08%
viability, T/C [13]: 88.7%
viability, T/C [14]: 78.1%
viability, T/C [15]: 75.8%
viability, T/C [16]: 7.01%
viability, T/C [17]: 4.17%
viability, T/C [18]: 2.6%
viability, T/C [19]: 77.2%
viability, T/C [20]: 70.2%
viability, T/C [21]: 63.4%
viability, T/C [22]: 6.41%
viability, T/C [23]: 0.1%
viability, T/C [24]: 3.85%
viability, T/C [25]: 81.8%
viability, T/C [26]: 73.7%
viability, T/C [27]: 52.8%
viability, T/C [28]: 6.15%
viability, T/C [29]: 0.14%
viability, T/C [30]: 0.16%
